Measured values from US20180363025A1, “T[…] FOR GUT INFLAMMATION” (William Marsh Rice University, priority 2015, published 2018).
“Also recorded” adds a separate entry of the source.

Columns and labels:
[1] = tested on: Shal_3128/9; experiment: Ligand competition assay, sensor response to thiosulfate in presence of other TEAs; type: cell-based, Shewanella halifaxensis; details: 5 mM thiosulfate plus 10 mM other TEA; FIG. 3E
Protocol: FIG. 3A-F. Characterization of the thiosulfate-sensing proteins: Shal_3128/9. (3A) The S. halifaxensis genomic region containing the thiosulfate reductase operon (Shal_3125-7) and neighboring thiosulfate-sensing TCS (Shal_3128/9). (3B) Plasmid design of the inducible thiosulfate sensor. […] (3D) Selectivity of Shal_3128/9 to thiosulfate over other terminal electron acceptors. All TEAs were tested at 10 mM concentration. (3E) Ligand competition assay. Sensor performance at 5 mM thiosulfate was tested in the presence of 10 mM other TEAs, and a decrease in response indicates inhibition by the added ligand. (3F) Inhibition curve of tetrathionate (filled circles) and sulfite (open squares) in the presence of 5 mM thiosulfate.

[2] = tested on: Shal_3128/9; details: TEAs tested at 10 mM; E. coli BW28357 expressing Shal_3128/9; FIG. 3D
Source text: The sensor kinase was expressed from a p15A medium-copy expression vector with spectinomycin resistance. Production of Shal_3128 was driven by the Ptac promoter and a designed synthetic RBS (predicted strength 1,000), which was induced by IPTG and regulated by constitutively expressed LacI. Transcription of Shal_3128, LacI, and Spec^R was terminated by the B0015, T1, and T0 terminators, respectively.
The response regulator and rewired output promoter driving GFP production were on a ColE1 high-copy expression vector with chloramphenicol resistance. Shal_3129 production was regulated by constitutively expressed TetR at the PLTetO-1 aTc-inducible promoter with a synthetic RBS (predicted strength 1,000). […] Production of sfGFP was regulated by output of the PShal_3127 promoter using the B0034 RBS, which provides a visual readout of Shal_3128/9 activity. Transcription of Shal_3129, sfGFP, TetR, and Cm^R was terminated by the B0015, B0015, T1, and T0 terminators, respectively.
Both plasmids were transformed into the BW28357 E. coli strain, available from The Coli Genetic Stock Center (CGSC#: 7991, F−, Δ(araD-araB)567, ΔlacZ4787(TrnB-3); lambda^−, Δ(rhaD-rhaB)568, hsdR514).

[3] = tested on: thiosulfate sensor; experiment: Effect of DSS on GFP output of optimized thiosulfate sensor; type: cell-based, Shewanella halifaxensis; details: 3% DSS; optimized constitutive sensor in E. coli Nissle; FIG. 4D
thiosulfate sensor, sequence (as listed by the source): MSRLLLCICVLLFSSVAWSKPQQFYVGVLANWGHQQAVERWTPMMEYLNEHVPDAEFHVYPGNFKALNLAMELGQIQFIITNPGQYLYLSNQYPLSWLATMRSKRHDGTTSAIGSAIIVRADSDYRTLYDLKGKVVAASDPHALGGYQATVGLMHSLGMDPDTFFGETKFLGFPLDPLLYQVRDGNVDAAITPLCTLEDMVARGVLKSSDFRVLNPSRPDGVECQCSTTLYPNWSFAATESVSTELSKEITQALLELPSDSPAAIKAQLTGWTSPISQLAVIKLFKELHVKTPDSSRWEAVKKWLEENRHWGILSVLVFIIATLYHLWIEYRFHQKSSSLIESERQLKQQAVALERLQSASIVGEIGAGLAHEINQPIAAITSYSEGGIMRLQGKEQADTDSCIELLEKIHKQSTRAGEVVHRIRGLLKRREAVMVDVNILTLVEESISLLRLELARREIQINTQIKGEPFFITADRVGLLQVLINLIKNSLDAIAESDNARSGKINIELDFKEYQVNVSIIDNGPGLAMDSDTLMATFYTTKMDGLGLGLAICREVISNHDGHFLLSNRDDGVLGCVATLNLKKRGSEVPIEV
thiosulfate sensor, sequence (as listed by the source partner): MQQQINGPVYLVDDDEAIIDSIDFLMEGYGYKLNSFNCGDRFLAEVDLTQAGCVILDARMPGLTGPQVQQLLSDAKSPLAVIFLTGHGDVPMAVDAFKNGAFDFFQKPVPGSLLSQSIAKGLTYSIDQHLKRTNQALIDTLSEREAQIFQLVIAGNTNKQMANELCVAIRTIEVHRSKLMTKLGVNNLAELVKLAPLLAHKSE
Source text: FIG. 4A-D. Sensor optimization for thiosulfate detection in the gut. (4A) Changes made between the initial characterization constructs and in vivo optimized sensor. (4B) Layout of sensor components on the final two plasmid expression system. (4C) Normalized dose-response behavior of thiosulfate sensors. Shown is the original, inducible, BW28357 strain grown aerobically (closed circles), and the selected constitutive promoter strain in Nissle grown aerobically (closed squares) and anaerobically (open squares). A shift in half-maximal response indicates sensitivity to oxygen. (4D) Dynamic range of optimized thiosulfate sensors. GFP output is shown in the absence (grey bars) and presence of 5 mM thiosulfate or 1 mM tetrathionate, respectively (black bars).

Compound	competition (inhibition of thiosulfate response) [1]	further results
O=S(=O)(O)SSS(=O)(=O)O [tetrathionate]	modest level of competition	–
O=S(O)O [sulfite]	modest level of competition	–
O=S(O)(O)=S [thiosulfate]	–	stimulation of production of reporter protein GFP [2]: effectively stimulated production of reporter protein GFP
Dextran Sodium Sulfate [DSS]	–	activation or inhibition of sensor signaling [3]: does not activate or inhibit signaling; also recorded: does not appear to be sensitive
